Experiment: Inhibition of voltage sensitive calcium channel of embryonic chick dorsal root ganglion (DRG) cells

IC50: 32 µM
Compound: COc1ccc(OC)c(-n2c(N)nc3cc(C(F)(F)F)ccc32)c1 [1-(2,5-Dimethoxy-phenyl)-5-trifluoromethyl-1H-benzoimidazol-2-ylamine]

From BindingDB's records for doi:10.1016/0960-894X(96)00010-8 (1996)
